Laboratory results reported in patent publication US10494378B2, “Fused ring pyrimidine compound, intermediate, and preparation method, composition and use thereof” (GUANGZHOU MAXINOVEL PHARMACEUTICALS CO., LTD., priority 2015, dated 2019).

Tests used:
Assay type in all cases: biochemical
FGFR 3 = molecular target: T1, FGFR 3 (Homo sapiens, UniProt P22607); assay: IC50 evaluation assay of FGFR3 kinase inhibition (Caliper); details: 28° C.; average of two tests; read-out: IC50 (nM) inhibiting FGFR 3 kinase
T1 construct: purchased Carna 08-135

FGR kinase = molecular target: T2, FGR kinase (Homo sapiens, UniProt P09769); assay: IC50 evaluation assay of Src family kinase inhibition: FGR; details: 28° C.; average of two tests; read-out: IC50 (nM) inhibiting Src family kinase FGR
T2 construct: purchased Carna 08-166
Procedure: (§1) 1. The compound was dissolved in 100% DMSO, diluted into solutions with appropriate concentration gradients with water according to experimental requirement, and added to a 96-well plate.
(§2) 2. c-Src kinase (Carna, Cat. No. 08-173, Lot. No. 05CBS-1367), LYNαkinase (Carna, Cat. No. 08-171, Lot. No. 06CBS-3296D), FYN kinase (Carna, Cat. No. 08-068, Lot. No. 05CBS-1032), LCK kinase (Carna, Cat. No. 08-170, Lot. No. 07CBS-2482), HCK kinase (BPS, Cat. No. 40440, Lot. No. 1001), FGR kinase (Carna, Cat. No. 08-166, Lot. No. 05CBS-2781), YES kinase (Carna, Cat. No. 08-175, Lot. No. 06CBS-3247) were diluted to the optimum concentration with the following buffer solution: 50 mM HEPES, pH 7.5, 0.0015% Brij-35, 10 mM MgCl2, 2 mM DTT. Transfer to the 96-well plate and incubate with the compound at 28° C. for a period of time.
(§3) 3. The buffer solution (100 mM HEPES, pH 7.5, 0.0015% Brij-35, 0.2% Coating Reagent and […]) was added to terminate the reaction.
(§4) 4. The conversion rate was read with Caliper Reader. The inhibition rate was calculated as the average of two tests.

FLT3-D835Y kinase = molecular target: T3, FLT3-D835Y kinase (Homo sapiens, UniProt P36888, D835Y); assay: IC50 evaluation assay of FLT3-D835Y kinase inhibition (Caliper); details: 28° C.; average of two tests; read-out: IC50 (nM) inhibiting FLT3-D835Y kinase
T3 construct: purchased Invitrogen PR7450A
T3 sequence (P36888 27-993 D835Y): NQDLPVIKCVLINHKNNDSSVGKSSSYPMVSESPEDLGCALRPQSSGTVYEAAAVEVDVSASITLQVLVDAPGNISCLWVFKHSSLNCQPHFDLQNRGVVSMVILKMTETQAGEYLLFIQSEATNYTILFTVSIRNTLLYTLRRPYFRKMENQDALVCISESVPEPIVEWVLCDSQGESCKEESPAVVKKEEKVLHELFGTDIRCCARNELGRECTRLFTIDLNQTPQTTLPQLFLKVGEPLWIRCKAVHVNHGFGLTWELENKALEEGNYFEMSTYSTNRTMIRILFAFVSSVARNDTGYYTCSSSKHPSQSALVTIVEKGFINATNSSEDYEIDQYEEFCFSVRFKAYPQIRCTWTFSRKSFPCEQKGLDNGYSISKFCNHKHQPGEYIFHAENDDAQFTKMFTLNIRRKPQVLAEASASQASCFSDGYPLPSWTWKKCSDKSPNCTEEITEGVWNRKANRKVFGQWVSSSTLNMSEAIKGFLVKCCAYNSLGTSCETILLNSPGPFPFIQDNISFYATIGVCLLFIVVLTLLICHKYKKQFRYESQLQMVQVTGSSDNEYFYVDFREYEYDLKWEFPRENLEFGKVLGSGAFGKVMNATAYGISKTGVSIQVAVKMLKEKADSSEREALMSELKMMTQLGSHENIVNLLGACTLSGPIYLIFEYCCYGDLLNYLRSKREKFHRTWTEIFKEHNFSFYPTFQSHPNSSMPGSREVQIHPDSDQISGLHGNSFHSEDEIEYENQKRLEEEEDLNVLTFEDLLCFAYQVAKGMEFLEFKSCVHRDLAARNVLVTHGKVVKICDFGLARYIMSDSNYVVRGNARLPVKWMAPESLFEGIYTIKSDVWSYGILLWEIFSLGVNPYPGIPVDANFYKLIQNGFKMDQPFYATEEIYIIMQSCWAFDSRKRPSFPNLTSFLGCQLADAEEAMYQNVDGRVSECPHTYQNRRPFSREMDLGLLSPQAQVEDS
Procedure: as §1
2. FLT3 kinase (Carna, Cat. No. 08-154, Lot. No. 07CBS-2350), FLT3-ITD kinase (Invitrogen, Cat. No. PV6191, Lot. No. 1753453) and FLT3-D835Y kinase (Invitrogen, Cat. No. PR7450A, Lot. No. 1629729C) were diluted to the optimum concentration with the following buffer solution: 50 mM HEPES, pH 7.5, 0.0015% Brij-35, 10 mM MgCl2, 2 mM DTT. Transfer to the 96-well plate and incubate with the compound at 28° C. for a period of time.
as §3, §4

FYN kinase = molecular target: T4, FYN kinase (Homo sapiens, UniProt P06241); assay: IC50 evaluation assay of Src family kinase inhibition: FYN; details: 28° C.; average of two tests; read-out: IC50 (nM) inhibiting Src family kinase FYN
T4 construct: purchased Carna 08-068
Procedure: as §1, §2, §3, §4

LCK kinase = molecular target: T5, LCK kinase (Homo sapiens, UniProt P06239); assay: IC50 evaluation assay of Src family kinase inhibition: LCK; details: 28° C.; average of two tests; read-out: IC50 (nM) inhibiting Src family kinase LCK
T5 construct: purchased Carna 08-170
Procedure: as §1, §2, §3, §4

T5 sequence (P06239 whole entry): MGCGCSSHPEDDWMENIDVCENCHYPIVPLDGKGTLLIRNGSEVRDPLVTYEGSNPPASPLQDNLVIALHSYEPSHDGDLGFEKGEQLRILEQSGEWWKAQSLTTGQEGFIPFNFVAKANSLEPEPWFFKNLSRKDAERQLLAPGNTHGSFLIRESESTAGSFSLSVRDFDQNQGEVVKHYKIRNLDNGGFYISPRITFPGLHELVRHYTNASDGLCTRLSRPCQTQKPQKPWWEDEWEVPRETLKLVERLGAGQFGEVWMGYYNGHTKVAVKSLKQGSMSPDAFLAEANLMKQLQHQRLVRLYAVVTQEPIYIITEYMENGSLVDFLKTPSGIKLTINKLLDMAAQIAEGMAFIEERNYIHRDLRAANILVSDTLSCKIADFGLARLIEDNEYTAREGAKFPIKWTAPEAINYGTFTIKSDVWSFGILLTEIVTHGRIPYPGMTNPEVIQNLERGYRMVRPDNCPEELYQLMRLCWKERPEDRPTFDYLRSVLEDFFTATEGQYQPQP
T4 sequence (P06241 whole entry): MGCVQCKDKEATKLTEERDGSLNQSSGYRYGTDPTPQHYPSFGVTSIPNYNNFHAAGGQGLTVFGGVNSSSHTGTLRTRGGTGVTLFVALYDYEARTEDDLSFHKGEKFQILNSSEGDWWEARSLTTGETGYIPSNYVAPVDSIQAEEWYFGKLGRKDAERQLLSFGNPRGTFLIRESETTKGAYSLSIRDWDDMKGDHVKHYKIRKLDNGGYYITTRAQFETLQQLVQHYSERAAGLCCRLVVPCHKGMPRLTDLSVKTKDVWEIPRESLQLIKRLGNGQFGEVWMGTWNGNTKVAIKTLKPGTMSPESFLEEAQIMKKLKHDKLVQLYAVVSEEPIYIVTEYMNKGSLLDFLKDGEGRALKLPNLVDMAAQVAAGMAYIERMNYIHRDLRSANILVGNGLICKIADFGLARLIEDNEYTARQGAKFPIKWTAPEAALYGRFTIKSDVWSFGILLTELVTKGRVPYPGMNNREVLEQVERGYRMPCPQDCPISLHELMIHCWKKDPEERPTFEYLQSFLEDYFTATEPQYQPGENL
T2 sequence (P09769 whole entry): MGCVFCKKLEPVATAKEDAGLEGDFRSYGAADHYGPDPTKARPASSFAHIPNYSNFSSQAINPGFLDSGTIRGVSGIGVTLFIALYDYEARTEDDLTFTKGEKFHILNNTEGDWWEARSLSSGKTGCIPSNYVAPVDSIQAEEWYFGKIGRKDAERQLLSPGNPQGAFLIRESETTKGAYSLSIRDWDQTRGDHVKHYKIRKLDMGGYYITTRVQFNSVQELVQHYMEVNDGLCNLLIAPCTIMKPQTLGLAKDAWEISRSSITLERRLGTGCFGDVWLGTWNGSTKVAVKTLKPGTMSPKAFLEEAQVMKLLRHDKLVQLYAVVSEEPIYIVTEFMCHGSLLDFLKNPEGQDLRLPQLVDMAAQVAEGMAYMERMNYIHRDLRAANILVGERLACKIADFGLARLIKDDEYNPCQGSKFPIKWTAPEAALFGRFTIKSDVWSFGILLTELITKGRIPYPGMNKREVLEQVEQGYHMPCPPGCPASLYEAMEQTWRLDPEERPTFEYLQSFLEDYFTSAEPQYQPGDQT
T1 sequence (P22607 23-806): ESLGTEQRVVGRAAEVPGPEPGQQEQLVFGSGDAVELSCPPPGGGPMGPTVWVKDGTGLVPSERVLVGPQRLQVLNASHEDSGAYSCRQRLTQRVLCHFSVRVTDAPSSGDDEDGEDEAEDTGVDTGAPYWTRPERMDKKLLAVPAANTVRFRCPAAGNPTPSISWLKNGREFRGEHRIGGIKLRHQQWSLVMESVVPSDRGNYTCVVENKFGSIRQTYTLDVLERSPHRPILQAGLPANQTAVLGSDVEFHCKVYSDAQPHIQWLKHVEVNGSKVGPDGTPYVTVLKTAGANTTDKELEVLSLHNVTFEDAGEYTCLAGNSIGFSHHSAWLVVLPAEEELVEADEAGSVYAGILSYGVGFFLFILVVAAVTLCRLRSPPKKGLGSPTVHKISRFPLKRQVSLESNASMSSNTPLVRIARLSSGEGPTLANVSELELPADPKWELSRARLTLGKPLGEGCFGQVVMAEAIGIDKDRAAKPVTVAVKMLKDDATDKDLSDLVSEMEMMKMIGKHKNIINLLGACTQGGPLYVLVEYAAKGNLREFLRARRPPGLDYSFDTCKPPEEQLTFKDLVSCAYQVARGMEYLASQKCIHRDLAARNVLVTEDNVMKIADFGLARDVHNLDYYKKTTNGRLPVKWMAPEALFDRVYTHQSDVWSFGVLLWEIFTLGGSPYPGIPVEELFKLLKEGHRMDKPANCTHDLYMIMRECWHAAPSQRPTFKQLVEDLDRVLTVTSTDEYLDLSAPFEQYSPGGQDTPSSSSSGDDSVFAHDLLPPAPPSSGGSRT

SMILES | IC50 (FGFR 3) [nM] | IC50 (FGR kinase) [nM] | IC50 (FLT3-D835Y kinase) [nM] | IC50 (FYN kinase) [nM] | IC50 (LCK kinase) [nM]
COc1cc(F)ccc1-c1c(C)sc2cnc(Nc3cnn(C4CCN(CCO)CC4)c3)nc12 [Compound 34, 2-[4-(4-{[7-(4-fluoro-2-methoxyphenyl)-6-methylthieno[3,2-d]pyrimidinyl-2-yl]amino}-1H-pyrazol-1-yl)-piperidinyl-1-yl]-1-ethanol] | 15 | 11 | 0.23 | < 5 | < 5
COc1cc(F)ccc1-c1c(C)sc2cnc(Nc3cnn(C4CCNCC4)c3)nc12 [Compound 31, N-[7-(4-fluoro-2-methoxyphenyl)-6-methylthieno[3,2-d]pyrimidinyl-2-yl]-1-(piperidinyl-4-yl)-1H-pyrazol-4-amine] | 16 | 14 | 0.2 | 3.7 | 5.5
